Results taken from patent publication EP4603105A1, “PHARMACEUTICAL COMPOSITION CONTAINING CYCLIC COMPOUND HAVING SELECTIVE KRAS INHIBITORY EFFECT AGAINST HRAS AND NRAS” (CHUGAI SEIYAKU KABUSHIKI KAISHA, priority 2022, dated 2024).
*1 amine or outer side, *2 acyl side, *3 side chain or, on linkers, in order; H or OH if unused. Where a SMILES comes first, the peptide text is derived from it. Bridges are numbered along the chain shown (N, C = ends). [ ]: non-standard residue; d: D form. The star is where a group is joined. X38 = CC(C)CCN([C@@H](Cc1ccc(C(F)(F)F)cc1)C(=O)[*:2])[*:1]; hPhe(3-Cl-4-CF3) = N[C@@H](CCc1ccc(C(F)(F)F)c(Cl)c1)C(=O)O; NPrPhe(4-CF3) = CCCN[C@@H](Cc1ccc(C(F)(F)F)cc1)C(=O)O; NMePhe(4-Me) = CN[C@@H](Cc1ccc(C)cc1)C(=O)O; NMeGly(cPent) = CN[C@H](C(=O)O)C1CCCC1; Pro(4,4-F2) = O=C(O)[C@@H]1CC(F)(F)CN1; NMeF = CN[C@@H](Cc1ccccc1)C(=O)O; NMeD = CN[C@@H](CC(=O)O)C(=O)O; NMeL = CN[C@@H](CC(C)C)C(=O)O; NMeAbu = CC[C@H](NC)C(=O)O; Morpholide = C1CN(*)CCO1; NMeA = CN[C@@H](C)C(=O)O; Ac5c = NC1(C(=O)O)CCCC1; Aze = O=C(O)[C@@H]1CCN1; Ac4c = NC1(C(=O)O)CCC1; NEtG = CCNCC(=O)O; Sar = CNCC(=O)O

What was measured:
[1] = target: GDP-bound NRAS wild-type protein (Homo sapiens, UniProt P01111); test: Binding to NRAS by surface plasmon resonance (SPR), KD and KD ratio to KRAS
Method in brief: (§1)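 Running buffer contained 10 µM GDP and 10 mM MgCl2 to keep RAS in the GDP state, with 4% DMSO at pH 7.4. Compounds were flowed at 100 µL/min in 75 s steps of rising concentration over captured biotin-Avi RAS at 30°C. Sensorgrams were fitted 1:1 for KD.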

HRAS wild-type protein = HRAS wild-type protein (Homo sapiens, UniProt P01112); test: Binding to HRAS by surface plasmon resonance (SPR), KD and KD ratio to KRAS
Method in brief: as §1

[2] = system: human lung cancer strain NCI-H441; format: cell-based
Method in brief: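 Step one: dispense the test compound in serial DMSO dilutions. Step three: add the reagent and measure […].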

[3] = ratio of KD for GDP-bound NRAS wild-type protein to KD for KRAS
[4] = ratio of KD for HRAS wild-type protein to KD for KRAS
[5] = ratio of KD value for GDP-bound NRAS wild-type protein to KD value for KRAS (SPR)
[6] = ratio of KD value for HRAS wild-type protein to KD value for KRAS (SPR)

GDP-bound NRAS wild-type protein, sequence (P01111 whole entry): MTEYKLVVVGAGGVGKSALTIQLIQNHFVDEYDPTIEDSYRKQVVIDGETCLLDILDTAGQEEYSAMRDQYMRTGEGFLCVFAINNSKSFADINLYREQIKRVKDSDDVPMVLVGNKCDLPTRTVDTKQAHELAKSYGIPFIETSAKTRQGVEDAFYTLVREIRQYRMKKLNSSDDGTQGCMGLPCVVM
HRAS wild-type protein, sequence (P01112 whole entry): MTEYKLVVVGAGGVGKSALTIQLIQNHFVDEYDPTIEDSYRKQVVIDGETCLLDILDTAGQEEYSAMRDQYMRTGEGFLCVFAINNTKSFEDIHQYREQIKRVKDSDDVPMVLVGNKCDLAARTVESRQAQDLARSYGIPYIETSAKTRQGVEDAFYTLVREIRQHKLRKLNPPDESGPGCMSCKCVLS

SMILES | NRAS /KRAS [1, 3] | HRAS /KRAS (HRAS wild-type protein; [4]) | IC50 [2] [nM] | NRAS /KRAS [1, 5] | HRAS /KRAS (HRAS wild-type protein; [6])
CCCN1C(=O)[C@@H]2CCN2C(=O)[C@H](C)N(C)C(=O)[C@H]([C@@H](C)CC)NC(=O)[C@H](CC(C)C)N(C)C(=O)C[C@@H](C(=O)N(C)C)NC(=O)[C@H](C2CCCC2)N(C)C(=O)C2(CCC2)NC(=O)[C@@H]2CC(F)(F)CN2C(=O)[C@H](CCc2ccc(C(F)(F)F)c(Cl)c2)NC(=O)CN(C)C(=O)[C@@H]1Cc1ccc(C(F)(F)F)cc1 [PP0382] ([NMeL]I[NMeA][Aze][NPrPhe(4-CF3)][Sar][hPhe(3-Cl-4-CF3)][Pro(4,4-F2)][Ac4c][NMeGly(cPent)]D-NMe2; lactam N-11) | C (A compound having a KD ratio of 0.1 or more and less than 3 is denoted as C) | B (a compound having 3 or more and less than 10 is denoted as B) | 12.1 |  | 
CC[C@H](C)[C@@H]1NC(=O)[C@H](CC(C)C)N(C)C(=O)C[C@@H](C(=O)N2CCOCC2)N(C)C(=O)[C@H](C2CCCC2)N(C)C(=O)C2(CCCC2)NC(=O)[C@@H]2CCCN2C(=O)[C@H](CCc2ccc(C(F)(F)F)c(Cl)c2)NC(=O)CN(C)C(=O)[C@H](Cc2ccccc2)N(C)C(=O)[C@@H]2CCN2C(=O)[C@H](C)N(C)C1=O [PP0011] ([NMeL]I[NMeA][Aze][NMeF][Sar][hPhe(3-Cl-4-CF3)]P[Ac5c][NMeGly(cPent)][NMeD]-Morpholide; lactam N-11) | C (A compound having a KD ratio of 0.1 or more and less than 3 is denoted as C) | C (A compound having a KD ratio of 0.1 or more and less than 3 is denoted as C) | 5.8 |  | 
CCO[C@@H]1C[C@H]2C(=O)N(C)C3(CCCC3)C(=O)N(C)[C@@H](C3CCCC3)C(=O)N(C)[C@H](C(=O)N(C)C)CC(=O)N(C)[C@@H](CC)C(=O)N[C@@H]([C@@H](C)CC)C(=O)N(C)CC(=O)N(C)[C@H]3C/C=C\CCN(C3=O)[C@@H](Cc3ccc(C(F)(F)F)cc3)C(=O)N(C)CC(=O)N[C@@H](CCc3cc(F)c(C(F)(F)F)c(F)c3)C(=O)N2C1 [PP1804] |  |  | 3.5 | A (a compound having 10 or more and less than 20 is denoted as A) | A (a compound having 10 or more and less than 20 is denoted as A)
CCO[C@@H]1C[C@H]2C(=O)NC3(CCC3)C(=O)N(C)[C@@H](C(CC)CC)C(=O)N(C)C(C(C)C)CC(=O)N(C)[C@@H](CC)C(=O)N[C@@H]([C@@H](C)CC)C(=O)N(C)CC(=O)N(C)[C@H]3C/C=C\CCN(C3=O)[C@@H](Cc3ccc(C(F)(F)F)cc3)C(=O)N(C)CC(=O)N[C@@H](CCc3cc(F)c(C(F)(F)F)c(F)c3)C(=O)N2C1 (stereo partly drawn) [PP1589] |  |  | 86.6 | A (a compound having 10 or more and less than 20 is denoted as A) | A (a compound having 10 or more and less than 20 is denoted as A)
CC[C@H](C)[C@@H]1NC(=O)[C@H](CC(C)C)N(C)C(=O)C[C@@H](C(=O)N2CCOCC2)N(C)C(=O)[C@H](C2CCCC2)N(C)C(=O)C2(CCCC2)NC(=O)[C@@H]2CCCN2C(=O)[C@H](CCc2ccc(C(F)(F)F)c(Cl)c2)NC(=O)CN(CC)C(=O)[C@H](Cc2ccc(C)cc2)N(C)C(=O)[C@@H]2CCN2C(=O)[C@H](C)N(C)C1=O [PP0004] ([NMeL]I[NMeA][Aze][NMePhe(4-Me)][NEtG][hPhe(3-Cl-4-CF3)]P[Ac5c][NMeGly(cPent)][NMeD]-Morpholide; lactam N-11) | C (A compound having a KD ratio of 0.1 or more and less than 3 is denoted as C) | C (A compound having a KD ratio of 0.1 or more and less than 3 is denoted as C) | 52.9 |  | 
CCO[C@@H]1C[C@H]2C(=O)NC3(CC(C)(C)C3)C(=O)N(C)[C@@H](C3CCCC3)C(=O)N(C)[C@H](C(=O)N(C)C)CC(=O)N(C)[C@@H](CC(F)(F)F)C(=O)N[C@@H]([C@@H](C)CC)C(=O)N(C)CC(=O)N(C)[C@H]3C/C=C\CCN(C3=O)[C@@H](Cc3ccc(C(F)(F)F)cc3)C(=O)N(C)CC(=O)N[C@@H](CCc3ccc(Cl)c(Cl)c3)C(=O)N2C1 [PP2832] | A (a compound having 10 or more and less than 20 is denoted as A) | A (a compound having 10 or more and less than 20 is denoted as A) | 4.8 |  | 
CCO[C@@H]1C[C@H]2C(=O)NC3(CC(C)(C)C3)C(=O)N(C)[C@@H](C3CCCC3)C(=O)N(C)[C@H](C(=O)N(C)CC)CC(=O)N(C)[C@@H](CC(C)C)C(=O)N[C@@H]([C@@H](C)CC)C(=O)NCC(=O)N(C)[C@H]3C/C=C\CCN(C3=O)[C@@H](Cc3ccc(C(F)(F)F)cc3)C(=O)N(C)CC(=O)N[C@@H](CCc3cc(F)c(C(F)(F)F)c(F)c3)C(=O)N2C1 [PP1771] |  |  | 6.6 | A (a compound having 10 or more and less than 20 is denoted as A) | A (a compound having 10 or more and less than 20 is denoted as A)
CCCN1C(=O)CN(C)C(=O)CN(C)C(=O)[C@H]([C@@H](C)CC)NC(=O)[C@H](CC)N(C)C(=O)C[C@@H](C(=O)N2CCOCC2)N(C)C(=O)[C@H](C2CCCC2)N(C)C(=O)C2(CCCC2)NC(=O)[C@@H]2CC(F)(F)CN2C(=O)[C@H](CCc2ccc(C(F)(F)F)c(Cl)c2)NC(=O)CN(C)C(=O)[C@@H]1Cc1ccc(C(F)(F)F)cc1 [PP0202] ([NMeAbu]I[Sar][Sar][NPrPhe(4-CF3)][Sar][hPhe(3-Cl-4-CF3)][Pro(4,4-F2)][Ac5c][NMeGly(cPent)][NMeD]-Morpholide; lactam N-11) | B (a compound having 3 or more and less than 10 is denoted as B) | C (A compound having a KD ratio of 0.1 or more and less than 3 is denoted as C) | 3.9 |  | 
CCCN1C(=O)[C@@H]2CCN2C(=O)[C@H](C)N(C)C(=O)[C@H]([C@@H](C)CC)NC(=O)[C@H](CC(C)C)N(C)C(=O)C[C@@H](C(=O)N2CCOCC2)N(C)C(=O)[C@H](C2CCCC2)N(C)C(=O)C2(CCCC2)NC(=O)[C@@H]2CCN2C(=O)[C@H](CCc2ccc(C(F)(F)F)c(Cl)c2)NC(=O)CN(C)C(=O)[C@@H]1Cc1ccc(C(F)(F)F)cc1 [PP0281] ([NMeL]I[NMeA][Aze][NPrPhe(4-CF3)][Sar][hPhe(3-Cl-4-CF3)][Aze][Ac5c][NMeGly(cPent)][NMeD]-Morpholide; lactam N-11) | C (A compound having a KD ratio of 0.1 or more and less than 3 is denoted as C) | C (A compound having a KD ratio of 0.1 or more and less than 3 is denoted as C) | 7.8 |  | 
CCO[C@@H]1C[C@H]2C(=O)NC3(CCCC3)C(=O)N(C)[C@@H](C3CCCC3)C(=O)N(C)[C@H](C(=O)N(C)C)CC(=O)N(C)[C@@H](C)C(=O)N[C@@H]([C@@H](C)CC)C(=O)N(C)CC(=O)N(C)[C@H]3C/C=C\CCN(C3=O)[C@@H](Cc3ccc(C(F)(F)F)cc3)C(=O)N(C)CC(=O)N[C@@H](CCc3cc(F)c(C(F)(F)F)c(F)c3)C(=O)N2C1 [PP1104] | A (a compound having 10 or more and less than 20 is denoted as A) | A (a compound having 10 or more and less than 20 is denoted as A) | 44.6 |  | 
C#CC[C@H]1C(=O)N[C@@H]([C@@H](C)CC)C(=O)N(C)CC(=O)N(C)[C@H]2C/C=C\CCN(C2=O)[C@@H](Cc2ccc(C(F)(F)F)cc2)C(=O)N(C)CC(=O)N[C@@H](CCc2cc(F)c(C(F)(F)F)c(F)c2)C(=O)N2C[C@H](F)C[C@H]2C(=O)NC2(CC(C)(C)C2)C(=O)N(C)[C@@H](C2CCCC2)C(=O)N(C)[C@H](C(=O)N(C)CC)CC(=O)N1C [PP1691] |  |  | 3.1 | A (a compound having 10 or more and less than 20 is denoted as A) | A (a compound having 10 or more and less than 20 is denoted as A)
CCO[C@@H]1C[C@H]2C(=O)NC3(CC(C)(C)C3)C(=O)N(C)[C@@H](C3CCCC3)C(=O)N(C)[C@H](C(=O)N3CCCC3)CC(=O)N(C)[C@H]3CCC/C=C/c4ccc(cc4)C[C@@H](C(=O)N(C)CC(=O)N[C@@H](CCc4cc(F)c(C(F)(F)F)c(F)c4)C(=O)N2C1)N1CC/C=C\C[C@@H](C1=O)N(C)C(=O)CN(C)C(=O)[C@H]([C@@H](C)CC)NC3=O [PP2574] | A (a compound having 10 or more and less than 20 is denoted as A) | A (a compound having 10 or more and less than 20 is denoted as A) | 4.2 |  | 
CCO[C@@H]1C[C@H]2C(=O)NC3(CC(C)(C)C3)C(=O)N(C)[C@@H](C3CCCC3)C(=O)N(C)[C@H](C(=O)N(C)CC)CC(=O)N(C)[C@@H](COC)C(=O)N[C@@H]([C@@H](C)CC)C(=O)N(C)CC(=O)N(C)[C@H]3C/C=C\CCN(C3=O)[C@@H](Cc3ccc(C(F)(F)F)cc3)C(=O)N(C)CC(=O)N[C@@H](CCc3ccc(Cl)c(Cl)c3)C(=O)N2C1 [PP2835] | A (a compound having 10 or more and less than 20 is denoted as A) | A (a compound having 10 or more and less than 20 is denoted as A) | 13 |  | 
CC[C@H](C)[C@@H]1NC(=O)[C@H](CC(C)C)N(C)C(=O)C[C@@H](C(=O)N2CCOCC2)N(C)C(=O)[C@H](C2CCCC2)N(C)C(=O)C2(CCCC2)NC(=O)[C@@H]2CCCN2C(=O)[C@H](CCc2ccc(C(F)(F)F)c(Cl)c2)NC(=O)CN(C)C(=O)[C@H](Cc2ccc(C(F)(F)F)cc2)N(CCC(C)C)C(=O)CN(C)C(=O)CN(C)C1=O [PP0126] ([NMeL]I[Sar][Sar][X38][Sar][hPhe(3-Cl-4-CF3)]P[Ac5c][NMeGly(cPent)][NMeD]-Morpholide; lactam N-11) | C (A compound having a KD ratio of 0.1 or more and less than 3 is denoted as C) | C (A compound having a KD ratio of 0.1 or more and less than 3 is denoted as C) | 9.3 |  | 
